{
  "source": "paper PMC10415144",
  "about": "“Structural insights into CodY activation and DNA recognition” (Nucleic Acids Research, 2023)",
  "key": {"EfCodY [1]": {"biological_target": "T1, EfCodY (Enterococcus faecalis, UniProt Q834K5)", "T1 construct": "gene codY; full-length; expressed in E. coli BL21(DE3)pLysS; N-terminal His6-tag cut with TEV protease, Gly-Ala remnant before start Met; two dimers on 30-bp DNA", "T1 sequence (Q834K5 entry or part of it)": "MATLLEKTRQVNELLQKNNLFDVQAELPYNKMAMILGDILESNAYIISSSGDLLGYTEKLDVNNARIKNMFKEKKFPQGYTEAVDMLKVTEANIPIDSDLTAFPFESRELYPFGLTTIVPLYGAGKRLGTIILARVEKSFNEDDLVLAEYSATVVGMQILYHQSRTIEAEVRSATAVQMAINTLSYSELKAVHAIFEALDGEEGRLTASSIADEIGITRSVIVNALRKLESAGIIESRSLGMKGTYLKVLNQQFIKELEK", "assay": "bio-layer interferometry, reduction of Leu-activated binding to hutP operator DNA", "type": "biochemical", "details": "2 mM GTP with 10 mM Leu; pH 8, 2 mM MgCl2, 25 °C; negative effect, binding to protein only presumed"}, "SaCodY [2]": {"biological_target": "T2, SaCodY (Staphylococcus aureus, UniProt Q2FHI3)", "T2 construct": "gene codY; full-length; expressed in E. coli BL21(DE3)pLysS; N-terminal His6-tag cut with TEV protease, Gly-Ala remnant before start Met", "T2 sequence (Q2FHI3 whole entry)": "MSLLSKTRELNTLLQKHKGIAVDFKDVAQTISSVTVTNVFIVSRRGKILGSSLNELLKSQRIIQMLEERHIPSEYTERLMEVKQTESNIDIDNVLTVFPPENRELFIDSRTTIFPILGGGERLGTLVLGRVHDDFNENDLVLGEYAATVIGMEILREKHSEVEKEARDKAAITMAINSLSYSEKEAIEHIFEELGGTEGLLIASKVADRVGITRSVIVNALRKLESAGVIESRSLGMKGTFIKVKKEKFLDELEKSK", "assay": "X-ray crystal structure of complex", "type": "binding"}, "SaCodY [3]": {"biological_target": "T2, SaCodY", "assay": "bio-layer interferometry, activation of binding to hutP operator DNA", "type": "biochemical", "details": "10 mM Leu with 2 mM GTP; pH 8, 2 mM MgCl2, 25 °C; allosteric activator"}, "EfCodY [4]": {"biological_target": "T1, EfCodY", "assay": "X-ray crystal structure of complex", "type": "binding", "details": "co-crystal with 30-bp DNA; 4 mM Leu; GAF domain BCAA site of protomers A and B only"}, "EfCodY [5]": {"biological_target": "T1, EfCodY", "assay": "Leu binding assay (method in supplement)", "details": "compared with Lys74Ala mutant; details only in supplement"}},
  "data": [
    {"compound": "Nc1nc2c(ncn2[C@@H]2O[C@H](COP(=O)(O)OP(=O)(O)OP(=O)(O)O)[C@@H](O)[C@H]2O)c(=O)[nH]1", "note": "[GTP]", "values": [
      {"measurement": "bio-layer interferometry, reduction of Leu-activated binding to hutP operator DN", "setting": "EfCodY [1]", "result": "Together with Leu, GTP reduced activation, presumably by interacting with the protein"},
      {"measurement": "X-ray crystal structure of complex", "setting": "SaCodY [2]; co-crystal with Ile and 30-bp DNA, 2 mM GTP, GAF domain near dimer interface, allosteric", "result": "The SaCodY-DNA complex was co-crystallized with Ile and GTP"}
    ]},
    {"compound": "CC[C@H](C)[C@H](N)C(=O)O", "note": "[Ile]", "values": [
      {"measurement": "X-ray crystal structure of complex", "setting": "SaCodY [2]; co-crystal with GTP and 30-bp DNA, 20 mM Ile, GAF domain BCAA site", "result": "The SaCodY-DNA complex was co-crystallized with Ile and GTP"}
    ]},
    {"compound": "CC(C)C[C@H](N)C(=O)O", "note": "[Leu]", "values": [
      {"measurement": "bio-layer interferometry, activation of binding to hutP operator DNA", "setting": "SaCodY [3]", "result": "SaCodY was activated by Ile (and to a lesser extent by Leu) and GTP"},
      {"measurement": "X-ray crystal structure of complex", "setting": "EfCodY [4]", "result": "EfCodY complex was co-crystallized in the presence of Leu, yet Leu bound only to protomers"},
      {"measurement": "affinity", "setting": "EfCodY [5]", "result": "the mutant binds Leu with comparable affinity to the wild type"}
    ]}
  ]
}
